According to patent US8389513B2, “2-amino-5,5-difluoro-5,6-dihydro-4H-[1,3]oxazin-4-yl)-phenyl]-amides” (Hoffmann-La Roche Inc., priority 2009, dated 2013):

Columns and labels:
[1] = target: T1, BACE2 (Rattus norvegicus, UniProt Q6IE75); assay: Assay for BACE inhibition by measuring cellular TMEM27 cleavage; assay type: cell-based; settings: INS-TMEM27 cells (INS1e-derived); shed TMEM27 by ELISA; read-out: BACE2 cell act. IC50
T1 construct: endogenous cellular BACE2 in the Ins1e rat cell line; endogenous in cells; host or cells: INS-TMEM27 (INS1e-derived rat cell line with TetOn-inducible full-length hTMEM27)
T1 sequence (Q6IE75 63-514): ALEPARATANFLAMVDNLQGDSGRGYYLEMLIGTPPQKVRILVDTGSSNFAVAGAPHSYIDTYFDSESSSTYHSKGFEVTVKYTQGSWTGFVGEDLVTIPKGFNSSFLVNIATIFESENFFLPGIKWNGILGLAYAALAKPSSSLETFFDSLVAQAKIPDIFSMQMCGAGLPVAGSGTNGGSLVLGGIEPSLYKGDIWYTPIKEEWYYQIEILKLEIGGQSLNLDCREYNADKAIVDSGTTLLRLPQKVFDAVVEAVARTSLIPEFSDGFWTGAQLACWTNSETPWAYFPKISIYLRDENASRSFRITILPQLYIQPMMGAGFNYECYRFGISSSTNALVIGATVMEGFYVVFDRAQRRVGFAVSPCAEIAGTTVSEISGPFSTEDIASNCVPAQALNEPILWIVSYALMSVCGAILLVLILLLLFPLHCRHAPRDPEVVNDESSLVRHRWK
How it was run: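 Ins1e-derived INS-TMEM27 rat cells with doxycycline-inducible full-length human TMEM27; inhibitor added 2 h before doxycycline (500 ng/ml final), then 46 h at 37 °C. Shed TMEM27 in supernatant quantified by sandwich ELISA with anti-human-TMEM27 antibodies; EC50 from curve fit across inhibitor concentrations.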

[2] = in vivo effect; settings: po; % of control @ 30 mg/kg p.o.
[3] = target: T2, recombinant human cathepsin E (Homo sapiens, UniProt P14091); assay: Cathepsin E fluorescent substrate kinetic assay; assay type: biochemical; settings: pH 4.5
T2 construct: purchased R&D Systems
T2 sequence (P14091 54-396): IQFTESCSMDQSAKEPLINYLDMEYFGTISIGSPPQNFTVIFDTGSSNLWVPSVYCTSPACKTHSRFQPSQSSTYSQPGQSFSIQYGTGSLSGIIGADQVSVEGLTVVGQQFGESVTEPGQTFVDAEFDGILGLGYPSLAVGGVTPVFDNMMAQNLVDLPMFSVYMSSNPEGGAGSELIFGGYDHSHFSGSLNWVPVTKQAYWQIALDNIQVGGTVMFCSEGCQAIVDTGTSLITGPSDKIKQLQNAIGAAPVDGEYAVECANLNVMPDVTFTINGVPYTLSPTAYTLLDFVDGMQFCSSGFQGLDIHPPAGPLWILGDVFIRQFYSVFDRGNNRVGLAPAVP
Text: (§1) Cathepsin D and Cathepsin E Fluorescent Substrate Kinetic Assays
The MR121 fluorescence assays described below are based on the fact that MR121 forms a non-fluorescent ground state complex with tryptophan. In solution this formation occurs at millimolar concentrations of tryptophan. The mechanism can be used to design a generic biochemical assay for proteases. […] In absence of protease activity, the substrates remain intact and the MR121 fluorescence is reduced by the high local Trp-concentration. If the substrates are cleaved by the enzymes the MR121 fluorescence is recovered.
The fluorescent substrate cathepsin D and cathepsin E kinetic assays were performed at room temperature in 384-well microtiter plates (black with clear flat bottom, non binding surface plates from Corning) in a final volume of 51 μl. The test compounds were serially diluted in DMSO (15 concentrations, 1/3 dilution steps) and 1 μl of diluted compounds were mixed for 10 min with 40 μl of cathepsin D (from human liver, Calbiochem) diluted in assay buffer (100 mM sodium acetate, 0.05% BSA, pH 5.5; final concentration: 200 nM) or with 40 μl of recombinant human cathepsin E (R&D Systems) diluted in assay buffer (100 mM sodium acetate, 0.05% BSA, pH 4.5; final concentration: 0.01 nM). […] The enzymatic reaction was followed in a plate: vision reader (Perkin Elmer) (excitation wavelength: 630 nm; emission: 695 nm) for at least 30 minutes in a kinetic measurement detecting an increase of MR121 fluorescence during the reaction time. The slope in the linear range of the kinetic was calculated and the IC50 of the test compounds were determined using a four parameter equation for curve fitting.

[4] = target: T3, cathepsin D (from human liver) (Homo sapiens, UniProt P07339); assay: Cathepsin D fluorescent substrate kinetic assay; assay type: biochemical; settings: pH 5.5
T3 construct: cathepsin D (from human liver, Calbiochem); purchased Calbiochem; host or cells: human liver
T3 sequence (P07339 65-412): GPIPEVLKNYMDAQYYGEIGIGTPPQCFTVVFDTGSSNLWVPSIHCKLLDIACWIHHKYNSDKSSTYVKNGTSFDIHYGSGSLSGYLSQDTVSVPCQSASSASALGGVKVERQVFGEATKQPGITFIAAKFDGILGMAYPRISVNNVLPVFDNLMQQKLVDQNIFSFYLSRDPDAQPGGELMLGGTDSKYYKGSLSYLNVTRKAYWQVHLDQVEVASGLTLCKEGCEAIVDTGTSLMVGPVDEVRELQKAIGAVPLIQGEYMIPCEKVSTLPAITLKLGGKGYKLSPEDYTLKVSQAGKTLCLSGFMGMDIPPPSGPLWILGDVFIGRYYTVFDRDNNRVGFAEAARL
Text: as §1
The MR121 fluorescence assays described below are based on the fact that MR121 forms a non-fluorescent ground state complex with tryptophan. In solution this formation occurs at millimolar concentrations of tryptophan. The mechanism can be used to design a generic biochemical assay for proteases. A substrate peptide is labeled at the N-terminus with tryptophan and at the C-terminus with the fluorophore MR121 (for cathepsin D the 10 amino acid peptide […]-MR121 was used; for cathepsin E, MR121-[…] was used). In absence of protease activity, the substrates remain intact and the MR121 fluorescence is reduced by the high local Trp-concentration. If the substrates are cleaved by the enzymes the MR121 fluorescence is recovered.
The fluorescent substrate cathepsin D and cathepsin E kinetic assays were performed at room temperature in 384-well microtiter plates (black with clear flat bottom, non binding surface plates from Corning) in a final volume of 51 μl. The test compounds were serially diluted in DMSO (15 concentrations, 1/3 dilution steps) and 1 μl of diluted compounds were mixed for 10 min with 40 μl of cathepsin D (from human liver, Calbiochem) diluted in assay buffer (100 mM sodium acetate, 0.05% BSA, pH 5.5; final concentration: 200 nM) or with 40 μl of recombinant human cathepsin E (R&D Systems) diluted in assay buffer (100 mM sodium acetate, 0.05% BSA, pH 4.5; final concentration: 0.01 nM). After addition of 10 μl of the cathepsin D substrate […]-MR121 diluted in cathepsin D assay buffer (final concentration: 300 nM) or 10 µl of the cathepsin E substrate MR121-[…] diluted in cathepsin E assay buffer (final concentration: 300 nM), the plates were strongly shaken for 2 minutes. The enzymatic reaction was followed in a plate: vision reader (Perkin Elmer) (excitation wavelength: 630 nm; emission: 695 nm) for at least 30 minutes in a kinetic measurement detecting an increase of MR121 fluorescence during the reaction time. The slope in the linear range of the kinetic was calculated and the IC50 of the test compounds were determined using a four parameter equation for curve fitting.

[5] = target: T4, BACE1 (Homo sapiens, UniProt P56817); assay: Cellular Aβ-lowering assay (Aβ40 ELISA); assay type: cell-based; settings: HEK293 cells stably expressing human APP695; Aβ40 in culture supernatant; read-out: BACE1 cell act. Aβ40 IC50
T4 construct: Human HEK293 cells which are stably transfected with a vector expressing a cDNA of the human APP wt gene (APP695); endogenous in cells; host or cells: HEK293 stably transfected with human APP695 wt
T4 sequence (P56817 46-501): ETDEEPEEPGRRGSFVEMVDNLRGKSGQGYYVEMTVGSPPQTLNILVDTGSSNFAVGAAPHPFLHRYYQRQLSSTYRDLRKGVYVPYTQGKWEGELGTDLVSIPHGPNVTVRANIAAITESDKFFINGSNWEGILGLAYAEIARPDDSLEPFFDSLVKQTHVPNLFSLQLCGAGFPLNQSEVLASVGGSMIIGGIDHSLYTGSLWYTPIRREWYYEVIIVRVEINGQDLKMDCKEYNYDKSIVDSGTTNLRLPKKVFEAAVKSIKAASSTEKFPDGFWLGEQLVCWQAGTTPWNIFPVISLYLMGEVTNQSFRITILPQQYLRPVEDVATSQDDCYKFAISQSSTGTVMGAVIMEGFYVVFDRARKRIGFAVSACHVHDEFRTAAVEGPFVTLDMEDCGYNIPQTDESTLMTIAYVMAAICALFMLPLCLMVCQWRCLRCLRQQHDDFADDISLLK
How it was run: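 Aβ40 in supernatant measured by sandwich ELISA (TMB, 450 nm) and quantified against a pure Aβ peptide standard curve.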

Row | SMILES | IC50 [1] | IC50 [3] | IC50 [4] | IC50 [5] | response vs control in vivo at 30 mg/kg [2]
1 | CC1(C)OC(N)=N[C@](C)(c2cc(NC(=O)c3ccc(Cl)cn3)ccc2F)C1(F)F [Example 19, 5-Chloro-pyridine-2-carboxylic acid [3-((R)-2-amino-5,5-difluoro-4,6,6-trimethyl-5,6-dihydro-4H-[1,3]oxazin-4-yl)-4-fluoro-phenyl]-amide] | 120 nM | – | – | 70 nM | –
2 | C[C@]1(c2cc(NC(=O)c3cnc(C(F)(F)F)cn3)ccc2F)N=C(N)OCC1(F)F [Example 17, 5-Trifluoromethyl-pyrazine-2-carboxylic acid [3-((R)-2-amino-5,5-difluoro-4-methyl-5,6-dihydro-4H-[1,3]oxazin-4-yl)-4-fluoro-phenyl]-amide] | 1220 nM | – | – | 86 nM | –
3 | C[C@]1(c2cc(NC(=O)c3[nH]ncc3Cl)ccc2F)N=C(N)OCC1(F)F [Example 65, 4-Chloro-2H-pyrazole-3-carboxylic acid [3-((R)-2-amino-5,5-difluoro-4-methyl-5,6-dihydro-4H-[1,3]oxazin-4-yl)-4-fluoro-phenyl]-amide] | 543 nM | – | – | 404 nM | –
4 | C[C@]1(c2cc(NC(=O)c3ncc(Cl)cc3F)ccc2F)N=C(N)OCC1(F)F [Example 15, 5-Chloro-3-fluoro-pyridine-2-carboxylic acid [3-((R)-2-amino-5,5-difluoro-4-methyl-5,6-dihydro-4H-[1,3]oxazin-4-yl)-4-fluoro-phenyl]-amide] | 52 nM | – | – | 9 nM | –

Second part, led by results:

Row | IC50 [1] | IC50 [3] | IC50 [4] | IC50 [5] | SMILES | response vs control in vivo at 30 mg/kg [2]
5 | 74 nM | 73000 nM | 69000 nM | – | C[C@]1(c2cc(NC(=O)c3ccc(C#N)cn3)ccc2F)N=C(N)OCC1(F)F [Example 11, 5-Cyano-pyridine-2-carboxylic acid [3-((R)-2-amino-5,5-difluoro-4-methyl-5,6-dihydro-4H-[1,3]oxazin-4-yl)-4-fluoro-phenyl]-amide] | < 50%
6 | 24 nM | – | – | 17 nM | C[C@]1(c2cc(NC(=O)c3ccc(Cl)cn3)ccc2Cl)N=C(N)OCC1(F)F [Example 50, 5-Chloro-pyridine-2-carboxylic acid [3-((R)-2-amino-5,5-difluoro-4-methyl-5,6-dihydro-4H-[1,3]oxazin-4-yl)-4-chloro-phenyl]-amide] | –
7 | 34900 nM | – | – | 520 nM | C[C@]1(c2cc(NC(=O)c3cnc(Cl)cn3)ccc2F)N=C(N)OCC1(F)F [Example 47, 5-Chloro-pyrazine-2-carboxylic acid [3-((R)-2-amino-5,5-difluoro-4-methyl-5,6-dihydro-4H-[1,3]oxazin-4-yl)-4-fluoro-phenyl]-amide] | –
8 | 19200 nM | – | – | 290 nM | C[C@]1(c2cc(NC(=O)c3ccc(OCC(F)(F)F)cn3)ccc2F)N=C(N)OCC1(F)F [Example 14, 5-(2,2,2-Trifluoro-ethoxy)-pyridine-2-carboxylic acid [3-((R)-2-amino-5,5-difluoro-4-methyl-5,6-dihydro-4H-[1,3]oxazin-4-yl)-4-fluoro-phenyl]-amide] | –
